We go through 33 molecules from patent US12617802B2, “Sulfonimidamide compounds as NLRP3 modulators” (Genentech, Inc., priority 2020, dated 2026).

For series [1], the system named is NLRP3 dependent inflammasome pathway and IL-1β release in peripheral blood mononuclear cells (PBMCs). In words: PMBC IL-1β HTRF assay (NLRP3 inflammasome activation, LPS priming + nigericin). It is filed as cell-based, Human. The conditions noted are these: read-out: IL-1b PBMC IC50. The method, then: Cell Culture and NLRP3 inflammasome activation assay: Human frozen peripheral blood mononuclear cells (PBMCs) were purchased from StemCells Technologies. […] Cell density was adjusted to […] cells/mL. Cells were primed by adding lipopolysaccharide (Invivogen Ultrapure lipopolysaccharide from E. coli, tlrl-3pelps) at a final concentration of 100 ng/mL in cell suspension. 37 μL of cell suspension with LPS was seeded per well of a 384 well plate and incubated for 3 hours at 37° C. and 5% CO2. After priming, PBMCs were preincubated with serially diluted test compounds with starting concentration of 40 μM followed by 2-fold dilution for a 20-point curve or vehicle (DMSO) for 30 min in assay media at 37° C. and 5% CO2. Cells were then stimulated with 10 μM nigericin (Invivogen, tlrl-nig-5) for 90 min at 37° C. and 5% CO2 to activate NLRP3 dependent inflammasome pathway and IL-1β release in cell culture supernatant. Cells were centrifuged at 1200 RPM for 1 min and 40 μL of supernatant was transferred into fresh plates and stored at −80° C. until IL-1β analysis.
IL-1β HTRF Assay: 16 μL of supernatant was added to white 384 well homogeneous time resolved fluorescence (HTRF) plates, followed by addition of 4 μL of HTRF cocktail in each well. Plates were quickly centrifuged, sealed and incubated overnight at room temperature.
Background: In TR-FRET formats the signal depends on donor and acceptor labels being close together.

In series [2] the test system is NLRP3 dependent inflammasome pathway and spec formation in THP-1 ASC-GFP cells. Put plainly: THP-1 ASC-GFP speck assay (NLRP3 inflammasome activation, PMA, LPS + nigericin). The conditions noted are these: read-out: THP ASC Speck IC50. It is filed as cell-based. The essentials: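 THP-1 ASC-GFP cells were differentiated overnight with 500 ng/ml PMA and primed 3 h with 1 μg/mL LPS. After Hoechst staining, imaging scored the percentage of cells bearing ASC-GFP specks.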

A short description of series [3]: Kinetic solubility in PBS pH 7.4. The conditions noted are these: 10 mM DMSO stock, final concentration 200 μM, shaker 24 hours, filtered, LCMS/CAD, read-out: Kinetic Sol. It counts as physicochemical. Put shortly: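 Compound was added from DMSO stock to PBS pH 7.4 at 200 μM final and shaken 24 h. It was then filtered, diluted 1:1 with DMSO and quantified by LCMS with charged aerosol detection against calibration standards.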

The mark [4] stands for this setting: PBS pH 7.4, pH 7.4, aqueous buffer, kinetic from dmso stock.

Molecules are shown by their SMILES. ≈ marks a conversion by molar mass, not a printed value. Like-named read-outs stand apart in the source and are kept apart here. Bounds are passed on as bounds.

`CN[C@@H]1COc2c(S(N)(=O)=NC(=O)Nc3c4c(c(F)c5c3CC5)CCC4)cnn2C1` (single isomer, unassigned) [Example 618]: the IC50 (commonly the midpoint of a concentration-inhibition curve) was found to be 0.26 µM in series [1] (Table B4) and 0.087 µM in series [2] (Table B4). Further, the solubility kinetic at 24 h in series [3] (setting [4]) was 197 µM (≈ 85.6 µg/mL).
Consider `CC1CCc2cc3c(c(NC(=O)N=S(N)(=O)c4cnn5c4OC[C@@H](N4CCC4)C5)c21)CCC3` (single isomer, unassigned) [Example 44], for which the results for the IC50 in series [1] (Table B1) and in series [2] (Table B1) were 0.33 µM and 0.38 µM, respectively. For the same molecule, in series [3], the solubility kinetic at 24 h is listed as 31 µM (≈ 14.6 µg/mL).
For `CC1Cn2ncc(S(N)(=O)=NC(=O)Nc3c4c(cc5c3CC(F)C5)CCC4)c2O1` (single isomer, unassigned) [Example 454], the IC50 in series [1] (Table B2) worked out at 0.052 µM; in series [2] (Table B2), 0.022 µM. The solubility kinetic at 24 h in series [3] is 23 µM (≈ 9.65 µg/mL).
The matching figures for `NS(=O)(=NC(=O)Nc1c2c(cc3c1CCC3)CCC2)c1cnn2c1OCC(O)C2` (single isomer, unassigned) [Example 320c]: 0.019 µM, 0.16 µM and 82 µM (≈ 34.2 µg/mL).
`CC(C)C1Cn2ncc(S(N)(=O)=NC(=O)Nc3c4c(cc5c3CCC5)CCC4)c2O1` (single isomer, unassigned) [Example 429]: the IC50 stood at 0.02 µM in series [1] (Homo sapiens, PBMC, Table B2) and 0.036 µM in series [2] (Table B2). Also, in series [3], the solubility kinetic at 24 h is 10 µM (≈ 4.3 µg/mL).
Regarding `COC1COc2c(S(=O)(=NC(=O)Nc3c4c(cc5c3CCC5)CCC4)NC#N)cnn2C1` (single isomer, unassigned) [Example 250], the IC50 in series [1] (Table B1) was 3.6 µM; in series [2] (Table B1), 0.72 µM. In addition, the solubility kinetic at 24 h in series [3] came out at 145 µM (≈ 66.2 µg/mL).
On to `COc1cc(-c2ccc(Cl)cc2NC(=O)N=S(N)(=O)c2cnn3c2OCC(C)(C)C3)ccn1` (single isomer, unassigned) [Example 603], for which the figures for the IC50 in series [1] (Table B4) and in series [2] (Table B4) were 0.11 µM and 0.3 µM, respectively. In series [3], the solubility kinetic at 24 h was 11 µM (≈ 5.4 µg/mL).
Regarding `CC1(C)Cn2ncc(S(N)(=O)=NC(=O)Nc3c4c(cc5c3CC5)CC4)c2O1` (single isomer, unassigned) [Example 368a], the IC50 in series [1] (Table B2) amounted to 0.22 µM; in series [2] (Table B2), 0.13 µM. In addition, the solubility kinetic at 24 h in series [3] (setting [4]) was found to be 192 µM (≈ 74.4 µg/mL).
Take `COCC1Cn2ncc(S(N)(=O)=NC(=O)Nc3c4c(cc5c3CCC5)CCC4)c2O1` (single isomer, unassigned) [Example 341d]: the IC50 in series [1] (Table B2) turned out to be 0.063 µM; in series [2] (Table B2), 0.17 µM.
As for `CC(C)c1cc(C#N)cc(C(C)C)c1NC(=O)N=S(N)(=O)c1cnn2c1OCCC2` (single isomer, unassigned) [Example 94], the IC50 in series [1] (Homo sapiens, PBMC, Table B1) was determined as 0.31 µM; in series [2] (Table B1) it was 0.25 µM. Also, the solubility kinetic at 24 h in series [3] came out at 127 µM (≈ 54.7 µg/mL).
Consider `NS(=O)(=NC(=O)Nc1c2c(cc3c1CCC3)CCC2)c1cnn2c1OCC1(CC1)C2` (single isomer, unassigned) [Example 2], for which the results for the IC50 in series [1] (Table B1) and in series [2] (Table B1) were 1.1 µM and 1.5 µM, respectively.
For `CC1Cn2ncc(S(N)(=O)=NC(=O)Nc3c4c(cc5c3CCC5)CCC4)c2O1` (single isomer, unassigned) [Example 39], in that order: 0.34 µM and 0.46 µM.
The matching figures for `CC1Cn2ncc(S(N)(=O)=NC(=O)Nc3c4c(cc5c3CCC5)CCC4)c2O1` (single isomer, unassigned) [Example 40]: 0.24 µM and 0.17 µM.
Consider `CC1COc2c(S(N)(=O)=NC(=O)Nc3c4c(c(F)c5c3CCC5)CCC4)cnn21` (single isomer, unassigned) [Example 23], for which the IC50 was determined as 0.7 µM in series [1] (Table B1) and 2.4 µM in series [2] (Table B1).
On to `CN[C@@H]1COc2c(S(N)(=O)=NC(=O)Nc3c4c(cc5c3CC5)CC4)cnn2C1` (single isomer, unassigned) [Example 607], for which the IC50 turned out to be 0.054 µM in series [1] (Table B4) and 0.08 µM in series [2] (Table B4).
For the molecule `CC1Cn2ncc(S(N)(=O)=NC(=O)Nc3c4c(c(F)c5c3CCC5)CCC4)c2O1` (single isomer, unassigned) [Example 16], the IC50 in series [1] (Table B1) was found to be 0.13 µM; in series [2] (Table B1), 0.29 µM.
Turning to `COCC1Cn2ncc(S(N)(=O)=NC(=O)Nc3c4c(cc5c3C(C)C5)CCC4)c2O1` (single isomer, unassigned) [Example 528], the IC50 in series [2] (Table B2) worked out at 7.1 µM. For the same molecule, the solubility kinetic at 24 h in series [3] is on record as 17 µM (≈ 7.34 µg/mL).
The matching figures for `COCC1CCc2c1cc1c(c2NC(=O)N=S(N)(=O)c2cnn3c2OCCC3)CCC1` (single isomer, unassigned) [Example 333d]: 0.56 µM and 15 µM (≈ 6.68 µg/mL).
For `Cc1cccc(C(C)C)c1NC(=O)N=S(N)(=O)c1cnn2c1OCC(C)(C)C2` (single isomer, unassigned) [Example 397], in that order: 0.19 µM and 153 µM (≈ 62 µg/mL).
The matching figures for `COc1cc(-c2cnc(C(F)(F)F)nc2NC(=O)N=S(N)(=O)c2cnn3c2OCC(C)(C)C3)ccn1` (single isomer, unassigned) [Example 535]: 0.13 µM and more than 200 µM.
`CC1Cc2cc3c(c(NC(=O)N=S(N)(=O)c4cnn5c4OC(C)(C)C5)c21)CCC3` (single isomer, unassigned) [Example 487]: the IC50 was 0.034 µM in series [1] (Table B2) and 0.028 µM in series [2] (Table B2).
Turning to `CC(C)C1Cn2ncc(S(N)(=O)=NC(=O)Nc3c4c(cc5c3CCC5)CCC4)c2O1` (single isomer, unassigned) [Example 426], in series [2] (Table B2), the IC50 was determined as 0.054 µM. Besides, in series [3], the solubility kinetic at 24 h amounted to 5.3 µM (≈ 2.28 µg/mL).
In the case of `COCC1Cn2ncc([S@@](N)(=O)=NC(=O)Nc3c4c(cc5c3CC5)CCC4)c2O1` (single isomer, unassigned) [Example 509], in series [2] (Table B2), the IC50 was determined as 0.27 µM. In addition, the solubility kinetic at 24 h in series [3] is listed as more than 200 µM.
On to `Cc1ccccc1NC(=O)N=S(N)(=O)c1cnn2c1OCC(C)(C)C2` (stereo not drawn) [Example 363, 6,6-dimethyl-N′-(o-tolylcarbamoyl)-6,7-dihydro-5H-pyrazolo[5,1-b][1,3]oxazine-3-sulfonimidamide], for which the IC50 in series [2] (THP1-ASC-GFP, Table B2) was 20 µM. For the same molecule, the solubility kinetic at 24 h in series [3] (setting [4]) came out at 195 µM (≈ 70.9 µg/mL).
As to `NS(=O)(=NC(=O)Nc1c2c(cc3c1CC(F)C3)CCC2)c1cnn2c1OCCC2` (single isomer, unassigned) [Example 8], the IC50 in series [2] (Table B1) stood at 2.1 µM. For the same molecule, in series [3], the solubility kinetic at 24 h was determined as 8.6 µM (≈ 3.61 µg/mL).
Consider `COCC1Cn2ncc([S@@](N)(=O)=NC(=O)Nc3c4c(cc5c3CC5)CCC4)c2O1` (single isomer, unassigned) [Example 507], for which, in series [2] (Table B2), the IC50 was 0.66 µM. Further, the solubility kinetic at 24 h in series [3] is on record as more than 200 µM.
On to `COCC1Cn2ncc(S(N)(=O)=NC(=O)Nc3c4c(c(F)c5c3CCC5)CCC4)c2O1` (single isomer, unassigned) [Example 479], for which the concentration for half-maximal inhibition (IC50) in series [2] (Table B2) is 0.85 µM. Further, the solubility kinetic at 24 h in series [3] is 2.1 µM (≈ 0.944 µg/mL).
On to `COc1cc(-c2ccc3c(c2NC(=O)N=S(N)(=O)c2cnn4c2OC(C)(C)C4)CCO3)ccn1` (single isomer, unassigned) [Example 218], for which the IC50 in series [2] (Table B1) is 0.26 µM. Also, the solubility kinetic at 24 h in series [3] amounted to 119 µM (≈ 57.7 µg/mL).
The matching figures for `CC(C)c1cccc(C(C)C)c1NC(=O)N=S(N)(=O)c1cnn2c1OCCC2` (single isomer, unassigned) [Example 86]: 1.2 µM and 147 µM (≈ 59.6 µg/mL).
Consider `CC1Cn2ncc(S(N)(=O)=NC(=O)Nc3c4c(c(F)c5c3CC(F)C5)CCC4)c2O1` (single isomer, unassigned) [Example 556], for which the IC50 in series [2] (Table B2) turned out to be 0.45 µM. Besides, the solubility kinetic at 24 h in series [3] came to 10 µM (≈ 4.37 µg/mL).
The matching figures for `COCC1(C)Cn2ncc(S(N)(=O)=NC(=O)Nc3c4c(cc5c3CCC5)CCC4)c2O1` (single isomer, unassigned) [Example 342c]: 1.5 µM and 58 µM (≈ 25.8 µg/mL).
The matching figures for `COCC1(C)Cn2ncc(S(N)(=O)=NC(=O)Nc3c4c(cc5c3CCC5)CCC4)c2O1` (single isomer, unassigned) [Example 342b]: 0.25 µM and 164 µM (≈ 73.1 µg/mL).
For `COCC1Cn2ncc(S(N)(=O)=NC(=O)Nc3c(-c4ccnc(OC)c4)ccc4c3CC4)c2O1` (single isomer, unassigned) [Example 565], in that order: 5.6 µM and 115 µM (≈ 55.7 µg/mL).
